Groups on a side chain read outwards from the residue. No end group written: not given here. BMPH = maleimide-and-hydrazide crosslinker; PPCN hydrogel = not defined here
Columns and labels:
[1] = system: human dermal fibroblasts and human epithelial keratinocytes; test: Self-assembled monolayer (SAM) cell adhesion assay; type: cell-based; settings: HDFs and HEKas
Protocol: Cysteine-terminated peptides were synthesized manually on Fmoc-Rink amide MHBA resin using a standard solid phase peptide synthesis protocol. They were purified using reverse-phase HPLC with a C18 column, and the final products were characterized by matrix-assisted laser desorption/ionization time of flight mass spectrometry (MALDI-TOF MS). Self-assembled monolayer cell adhesion assay was performed (ref 56; incorporated by reference in its entirety). Maleimide-terminated alkanethiol was self-assembled on the gold surfaces to form the well-organized monolayer. Known amount of characterized Cysteine-terminated peptides were dissolve in 0.1% trifluoroacetic acid solution and incubate with the surface to allow peptide absorption on the surface via thiol-maleimide reaction. The resulting surfaces were characterized by MALDI-TOF MS for peptide adsorption before being used for HDFs and HEKas adhesion studies. The adherent cells were counted 2 hours after the initial seeding. […]
The synthesized peptides were immobilized onto SAM chips by incubating the chips with 100 μM peptide solution in PBS at room temperature for 1 hr. […] Peptide chips were then mounted with Vectashield+DAPI and imaged on a Nikon Eclipse TE2000-U inverted fluorescence microscope. The number of cells per field of view was counted using ImageJ software. […]

Human dermal fibroblasts = test: In vitro 3D cell culture, live/dead stain, confocal imaging of cell spreading; type: cell-based; settings: HDFs
Protocol: Cell culture medium (KGM-Gold for HEKa, DMEM+10% FBS for HDF) was then added to each well, and cells were cultured at 37° C. and 5% CO2. After 5 or 10 days, the gels were washed twice with warm 1×PBS, and stained with live/dead stain (2 uM calcein AM and 2 uM ethidium homodimer-1) at 37° C. for 15 min. The samples were then washed twice with warm 1×PBS and imaged on a Nikon C2 Confocal microscope.

HDFs [2] = test: Cell cycle analysis by flow cytometry with propidium iodide; type: cell-based, human; settings: HDFs in gel
Protocol: A flow cytometric analysis, with propidium iodide (PI), was performed in order to measure the cell cycle activity. At each time point, cell encapsulated scaffolds were liquefied, and the cells were extracted via centrifuging. The cells were then washed with ice-cold PBS, and fixed with 70% ice-cold ethanol for 1 h before repeated washing with PBS and re-suspension in PBS with 0.5 mg/mL Rnase A (Thermo Fisher Scientific). After 1 h incubation, the cellular DNA was then stained with PI (50 μg/mL) for 20 min while protected from the light at 4° C. The relative DNA concentration of the stained cells was measured using a BD LSRII flow cytometer (Becton Dickinson, San Jose, Calif.).

HDFs [3] = test: PicoGreen total DNA quantification (proliferation in 3D culture); type: cell-based, human; settings: HDFs in gel, over the course of 10 days
Protocol: HDF encapsulated hydrogel scaffold samples were prepared and cultured using the same method as the in vitro 3D cell culture with 10 K cells per 50 μl hydrogel per sample. At each time point, after removing the medium, the samples were cooled on ice, and the cells were lysed by PBS-3% Triton-X. The Quant-iT PicoGreen dsDNA assay kit (Life Technologies) was employed according to the manufacturer's protocol, and the results were read in triplicates. Samples of […] were accessed using microplate reader (Tecan, Männedorf, Switzerland); fluorescence was quantified at 520 nm with excitation at 480 nm.

[4] = system: integrin α3 and α6 on HDFs; test: Proliferation inhibition with anti-integrin α3 and α6 antibodies; type: cell-based, human; settings: 5 days
Protocol: The mouse monoclonal antibody against human integrin α6 and α3 were purchased from Santa Cruz (Dallas, T A), and dialyzed with 10,000 MWCO Dialysis Cassettes dialysis cassette (Thermo Scientific) overnight to remove the sodium azide. […] Before cell encapsulation, HDFs were pre-incubated in suspension with corresponding anti-integrin antibodies (final concentration 10 μg/mL) for 15 min at 37° C. Then the pre-treated HDFs (1×10^4 cells per 50 μL scaffold per well) were incubated on the ultra-low attachment plate (Coring, Coring, NY) for 5 days at 37° C. in 5% CO2. Anti-integrin antibodies treatments were also added in the culture media for the corresponding groups (10 μg/mL), and the media was changed every other day. After 5 days of incubation, total DNA content within each scaffold was quantified using PicoGreen DNA quantification assay as mentioned above.

[5] = system: db/db mice full-thickness wound; test: Diabetic splinted excisional wound healing model, wound closure; type: in vivo, mouse
Protocol: To prevent skin contraction, paired pre-sterilized doughnut-shaped splints (10-mm inner diameter; 12-mm outer diameter) made from 0.5-mm-thick acrylate tape (3M, St. Paul, Minn.) were attached to the left and right dorsal sides of the mouse with Vetbond (3M) and interrupted 6-0 nylon sutures (Ethicon, Cincinnati, Ohio) after depilation. A 6-mm circular, full-thickness wound was made in the center of each splinted area. 40 μl of gel solution was applied to each wound bed. A transparent sterile occlusive dressing TegaDerm™ (3M) was then placed over the wound and the splint. Digital images of the wound area were taken every other day, and quantified in ImageJ by normalizing the wound area to the known splint area at each time point. Hydrogel dressings were reapplied on day 6, after gently rinsing the wound with cold 1× PBS.

db/db mice wound tissue = test: Histology and immunofluorescence of regenerated wound tissue; type: in vivo, mouse
Text: Upon full closure of the wounds (for the first batch study) or 10 days after the initial wound surgery (for the second batch study), animals were euthanized and the regenerated wound tissue was excised with a 10-mm biopsy punch (Acuderm, Fort Lauderdale, Fla.), fixed using 4% paraformaldehyde and embedded by paraffin. The tissues were then sectioned and processed for hematoxylin and eosin (H&E) staining to measure granulation tissue thickness, and the epithelial gap histomorphometrically. The granulation tissue thickness and epithelial gap was measured based on 5 different H&E images for each group by blinded observer using ImageJ. The tissue sections were also stained for Keratin 10, Integrin α3 or F4/80 (Santa Cruz, Dallas, Tex.) The secondary antibodies used were either conjugated to AlexaFluor488 or AlexaFluor555 (Invitrogen, Carlsbad, Calif.).

Row | Substance | cell adhesion on SAMs presenting the peptide [1] | cell spreading in 3D culture (Human dermal fibroblasts; day 5) | cell spreading in 3D culture (Human dermal fibroblasts; day 10) | S phase percentage (HDFs [2]; day 5) [%] | S phase percentage (HDFs [2]; day 10) [%] | cell proliferation rate (total DNA content) (HDFs [3]) | cell proliferation (total DNA) under complete blocking ([4]; both anti-α3 and anti-α6, 10 μg/mL) | cell proliferation (total DNA) under partial blocking ([4]; only anti-α3 or anti-α6, 10 μg/mL) | time to complete wound closure [5] [days] | percent wound closure ([5]; day 10) [%] | complete closure faster than P-RGD ([5]; versus P-RGD) [days] | complete closure faster than PPCN and P-IP ([5]; versus PPCN and P-IP) | granulation tissue thickness (db/db mice wound tissue; by the time of closure, compared with PPCN, P-RGD and P-IP groups) | wound histology at day 10 within the same animal (db/db mice wound tissue; db/db mice, day 10, P-A5G81 side vs P-IP side) | epidermal gap relative to that of the P-IP control wounds (db/db mice wound tissue; db/db mice, day 10, after two applications) [%] | epithelial gap (db/db mice wound tissue; db/db mice, day 30) [μm] | integrin α3 positive cells in wound tissue (db/db mice wound tissue; db/db mice, day 30) | wound opening relative to the initial wound size (db/db mice wound tissue; db/db mice, day 30) | macrophage marker F4/80 staining (db/db mice wound tissue; db/db mice, day 30, foreign body response) | Keratin 10 staining, epithelium structure (db/db mice wound tissue; db/db mice, day 30, wound centre)
1 | A5G81: 12 amino acid laminin α5 globular domain derived peptide AGQWHRVSVRWG (listed as Mus musculus) | excellent cell adhesion properties | – | – | – | – | – | – | – | – | – | – | – | – | – | – | – | – | – | – | –
2 | IP: inactive form of A5G81 (WHRVSVC), negative control (WHRVSVC-NH2) [reference compound] | very low cell adhesive properties | – | – | – | – | – | – | – | – | – | – | – | – | – | – | – | – | – | – | –
3 | P-A5G81: PPCN hydrogel conjugated via BMPH linker to cysteine-terminated A5G81 peptide (AGQWHRVSVRWGC([BMPH-PPCN hydrogel])-NH2; reading uncertain; also: conjugated to PPCN hydrogel via BMPH linker at C-terminal Cys) | – | began to spread | fully elongated with typical fibroblast morphology | 21 | 26.6 | higher cell proliferation rate | close to the unfunctionalized PPCN scaffold | partial decrease of the cell proliferation | 21 | 45.3 | 3 | one week faster | significantly thicker | thick granulation tissue was already prominent | 25 | 340 | significant amount of α3 positive cells | around 5% | minimum amount of macrophages | multi-layer epithelium structure
